Earlier results on 1 compound are cited in article PMC7926471 (Viruses, 2021).

For the data set, the system named is SARS-CoV-2. As to conditions: pre and post treatment of Vero E6 cultures; cited from earlier work.

One may read the EC50 as the concentration that produces a half-maximal response. The term EC90 denotes the concentration needed for an effect of 90%. Turning to `CCN(CC)CCCC(C)Nc1ccnc2cc(Cl)ccc12` (centres unmarked) [Chloroquine, chloroquine diphosphate], the EC50 is 1130 nM and the EC90 was 6.9 µM.
